Results as given in the supplement of paper PMC10307832.

Legend:
Assay in all cases: relative viability (nuclei count vs DMSO), 5 days (fraction); higher = more cells survive
AZ505 + Luminespib = compound: C1CCC(CC1)N(CCNCCC2=C3C(=C(C=C2)O)NC(=O)CO3)C(=O)CCNCCC4=CC(=C(C=C4)Cl)Cl [AZ505] + CCNC(=O)c1noc(-c2cc(C(C)C)c(O)cc2O)c1-c1ccc(CN2CCOCC2)cc1 [Luminespib] (partner 0.01 µM)
Procedure, shortened: (§1)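 Relative viability divides the nuclei count in treated wells by that in vehicle wells. Lung cancer cell lines were seeded in 1536-well plates, dosed by pin tool the next day, and fixed and stained after 5 days in one step with final 0.05% Triton X-100, 1% formaldehyde and 1 ug/ml Hoechst. Dosing was a single drug or a fixed anchor-drug dose plus five library-drug doses (not always all listed) in √10 steps, and values are medians of duplicate plates imaged at 4×.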

AZ505 + Phenformin = compound: C1CCC(CC1)N(CCNCCC2=C3C(=C(C=C2)O)NC(=O)CO3)C(=O)CCNCCC4=CC(=C(C=C4)Cl)Cl [AZ505] + N=C(N)NC(=N)NCCc1ccccc1 [Phenformin] (partner 250 µM)
Procedure, shortened: as §1

AZ505 + Decitabine = compound: C1CCC(CC1)N(CCNCCC2=C3C(=C(C=C2)O)NC(=O)CO3)C(=O)CCNCCC4=CC(=C(C=C4)Cl)Cl [AZ505] + Nc1ncn([C@H]2C[C@H](O)[C@@H](CO)O2)c(=O)n1 [Decitabine] (partner 2 µM)
Procedure, shortened: as §1

Dactolisib + Linsitinib = compound: Cn1c(=O)n(-c2ccc(C(C)(C)C#N)cc2)c2c3cc(-c4cnc5ccccc5c4)ccc3ncc21 [Dactolisib] + C[C@]1(O)C[C@@H](c2nc(-c3ccc4ccc(-c5ccccc5)nc4c3)c3c(N)nccn32)C1 [Linsitinib] (partner 1 µM)
Procedure, shortened: as §1

Cell Line	relative viability (AZ505 + Luminespib; first compound 0.08 µM)	relative viability (AZ505 + Luminespib; first compound 0.253 µM)	relative viability (AZ505 + Luminespib; first compound 0.8 µM)	relative viability (AZ505 + Luminespib; first compound 2.53 µM)	relative viability (AZ505 + Luminespib; first compound 8 µM)	relative viability (AZ505 + Phenformin; first compound 0.08 µM)	relative viability (AZ505 + Phenformin; first compound 0.253 µM)	relative viability (AZ505 + Phenformin; first compound 0.8 µM)	relative viability (AZ505 + Phenformin; first compound 2.53 µM)	relative viability (AZ505 + Phenformin; first compound 8 µM)	relative viability (AZ505 + Decitabine; first compound 0.08 µM)	relative viability (AZ505 + Decitabine; first compound 0.253 µM)	relative viability (AZ505 + Decitabine; first compound 0.8 µM)	relative viability (AZ505 + Decitabine; first compound 2.53 µM)	relative viability (AZ505 + Decitabine; first compound 8 µM)	relative viability (Dactolisib + Linsitinib; first compound 0.002 µM)	relative viability (Dactolisib + Linsitinib; first compound 0.006325 µM)	relative viability (Dactolisib + Linsitinib; first compound 0.02 µM)	relative viability (Dactolisib + Linsitinib; first compound 0.06325 µM)	relative viability (Dactolisib + Linsitinib; first compound 0.2 µM)
NCI-H1755	0.505	0.589	0.448	0.594	0.444	0.615	0.592	0.663	0.639	0.688	0.721	0.727	0.724	0.711	0.772	0.983	0.971	0.989	0.763	0.622
NCI-H661	0.879	0.928	0.909	0.914	0.928	0.285	0.261	0.288	0.328	0.296	0.54	0.575	0.522	0.575	0.582	0.453	0.454	0.505	0.223	0.23
HARA	0.622	0.32	0.444	0.628	0.324	0.389	0.422	0.42	0.343	0.408	0.302		0.41	0.482	0.408	1	0.884	0.842	0.573	0.211
NCI-H596	0.928	0.917	0.976	0.992	0.965	0.619	0.833	0.859	0.719	0.754	0.976		0.974	1.15	0.979	1.18	0.935	0.924	0.523	0.387
NCI-H23	0.214		0.208	0.221	0.196	0.731		0.741	0.759	0.821	0.284	0.326	0.327	0.306	0.311	0.553	0.598	0.368	0.243	0.287
LCLC-97TM1	0.774	0.853	0.836	0.749	0.871	0.386	0.445	0.416	0.428	0.462	0.195	0.253	0.244		0.228	0.157	0.186	0.208	0.157	0.132
EPLC-272H		0.161	0.373	0.25	0.301		0.283	0.304	0.241	0.324	0.35	0.352	0.305	0.343	0.354	1.16	1.09	0.969	0.575	0.491
NCI-H1915	0.769	0.928	0.75	0.783	0.986	0.339	0.38	0.345	0.375	0.354	0.278	0.303	0.29	0.27	0.279	1.11	1.13	1.11	0.901	0.631
NCI-H2405	0.598	0.474	0.586	0.597	0.474	0.278	0.214	0.31	0.218	0.263	0.605		0.702	0.703	0.647	0.936	0.76	0.755	0.323	0.275
NCI-H322M	0.931	0.84	0.798	0.819	0.918	0.75	0.756	0.718	0.728	0.826	0.679		0.67	0.677	0.76	0.939	0.826	0.84	0.586	0.442
NCI-H1395	0.618	0.752	0.693	0.696	0.66	0.435	0.461	0.426	0.483	0.479	0.745		0.664	0.699	0.767	0.91	0.844	0.998	0.653	0.834
NCI-H358	0.22	0.306	0.402		0.584	0.356	0.346	0.351	0.24	0.364	0.2	0.209	0.194	0.218	0.21	0.848	0.641	0.549	0.293	0.211
NCI-H838	0.413	0.251	0.253	0.287	0.424	0.503	0.491	0.49	0.466	0.579	0.444	0.475	0.461	0.469	0.506	0.915	0.444	0.652	0.226	0.22
